Patent EP3623369A1, “NOVEL MORPHOLINYL AMINE COMPOUNDS FOR THE TREATMENT OF AUTOIMMUNE DISEASE” (F. Hoffmann-La Roche AG, priority 2018, dated 2020)

Biological target: T1, hTLR9 (Homo sapiens, UniProt Q9NR96)
T1 sequence (Q9NR96 26-1032): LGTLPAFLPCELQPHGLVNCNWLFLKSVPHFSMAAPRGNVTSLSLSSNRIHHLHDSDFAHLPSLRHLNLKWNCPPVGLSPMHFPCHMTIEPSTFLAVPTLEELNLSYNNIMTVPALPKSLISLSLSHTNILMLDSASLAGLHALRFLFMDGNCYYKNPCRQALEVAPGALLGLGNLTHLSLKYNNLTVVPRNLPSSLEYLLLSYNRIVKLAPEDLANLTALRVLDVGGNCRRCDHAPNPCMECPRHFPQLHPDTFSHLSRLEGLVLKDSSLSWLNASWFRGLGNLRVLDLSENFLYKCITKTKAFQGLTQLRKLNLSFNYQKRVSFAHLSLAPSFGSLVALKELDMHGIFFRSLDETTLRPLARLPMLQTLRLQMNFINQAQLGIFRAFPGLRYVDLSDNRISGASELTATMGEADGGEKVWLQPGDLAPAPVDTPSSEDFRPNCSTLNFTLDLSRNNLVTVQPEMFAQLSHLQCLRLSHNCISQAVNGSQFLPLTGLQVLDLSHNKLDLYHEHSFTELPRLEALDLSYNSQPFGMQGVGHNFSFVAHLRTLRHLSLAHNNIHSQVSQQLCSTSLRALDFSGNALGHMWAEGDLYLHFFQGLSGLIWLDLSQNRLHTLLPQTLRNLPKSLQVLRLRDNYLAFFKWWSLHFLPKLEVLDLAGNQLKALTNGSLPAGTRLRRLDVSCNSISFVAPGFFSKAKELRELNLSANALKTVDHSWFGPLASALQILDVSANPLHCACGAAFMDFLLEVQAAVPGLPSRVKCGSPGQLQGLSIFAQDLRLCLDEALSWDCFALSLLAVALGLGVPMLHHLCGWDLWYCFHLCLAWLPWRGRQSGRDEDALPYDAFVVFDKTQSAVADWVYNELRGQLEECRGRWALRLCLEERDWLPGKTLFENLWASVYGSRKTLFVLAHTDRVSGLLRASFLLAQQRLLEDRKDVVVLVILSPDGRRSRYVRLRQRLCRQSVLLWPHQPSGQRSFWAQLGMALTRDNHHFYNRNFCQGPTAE
Experiment: HEK293-Blue-hTLR-9 cells assay (SEAP reporter, ODN2006 stimulation)
Type: cell-based
Settings: HEK293-Blue-hTLR9 cells, ODN2006, 20 hrs; 0.032 is the lowest tested concentration; read-out: HEK/hTLR9 IC50
Method: The following tests were carried out in order to determine the activity of the compounds of formula (I) or (Ia) in HEK293-Blue-hTLR-7/8/9 cells assay.
HEK293-Blue-hTLR-9 cells assay:
A stable HEK293-Blue-hTLR-9 cell line was purchased from InvivoGen (Cat.#: hkb-htlr9, San Diego, California, USA). These cells were originally designed for studying the stimulation of human TLR9 by monitoring the activation of NF-κB. A SEAP (secreted embryonic alkaline phosphatase) reporter gene was placed under the control of the IFN-β minimal promoter fused to five NF-κB and AP-1-binding sites. The SEAP was induced by activating NF-κB and AP-1 via stimulating HEK-Blue hTLR9 cells with TLR9 ligands. Therefore the reporter expression was declined by TLR9 antagonist under the stimulation of a ligand, such as ODN2006 (Cat.#: tlrl-2006-1, Invivogen, San Diego, California, USA), for incubation of 20 hrs. The cell culture supernatant SEAP reporter activity was determined using QUANTI-Blue™ kit (Cat.#: rep-qb1, Invivogen, San Diego, California, USA) at a wavelength of 640 nm, a detection medium that turns purple or blue in the presence of alkaline phosphatase.
HEK293-Blue-hTLR9 cells were incubated at a density of 250,000∼450,000 cells/mL in a volume of 170 µL in a 96-well plate in Dulbecco's Modified Eagle's medium (DMEM) containing 4.5 g/L glucose, 50 U/mL penicillin, […], […], 2 mM L-glutamine, 10% (v/v) heat-inactivated fetal bovine serum with addition of 20 µL test compound in a serial dilution in the presence of final DMSO at 1% and 10 µL of 20uM ODN2006 in above DMEM, perform incubation under 37 °C in a CO2 incubator for 20 hrs. Then 20 µL of the supernatant from each well was incubated with 180 µL Quanti-blue substrate solution at 37 °C for 2 hrs and the absorbance was read at 620∼655 nm using a spectrophotometer. The signalling pathway that TLR9 activation leads to downstream NF-κB activation has been widely accepted, and therefore similar reporter assay was modified for evaluating TLR9 antagonist.

| Compound | IC50 [µM] |
| --- | --- |
| C[C@@H]1CN(c2ccc3c(c2)CN(C[C@H]2CN(c4ccc(C#N)c5ncccc45)C[C@@H](C)O2)C3)C[C@H](C)N1 [Example 71, 5-[(2R,6S)-2-methyl-6-[[5-[(3R,5S)-3,5-dimethylpiperazin-1-yl]isoindolin-2-yl]methyl]morpholin-4-yl]quinoline-8-carbonitrile] | 0.073 |
| C[C@@H]1CN(c2ccc(C#N)c3ncsc23)C[C@H](CN2CCc3cc(N4CCNCC4)ccc3C2)O1 [Example 24, 7-[(2R,6S)-2-methyl-6-[(6-piperazin-1-yl-3,4-dihydro-1H-isoquinolin-2-yl)methyl]morpholin-4-yl]-1,3-benzothiazole-4-carbonitrile] | 0.081 |
| C[C@@H]1CN(c2ccc(C#N)n3nccc23)C[C@H](CN2Cc3ccc(N4CCN(C)CC4)cc3C2)O1 [Example 17, 4-[(2R,6S)-2-methyl-6-[[5-(4-methylpiperazin-1-yl)isoindolin-2-yl]methyl]morpholin-4-yl]pyrazolo[1,5-a]pyridine-7-carbonitrile] | 0.048 |
| C[C@@H]1CN(c2ccc(Cl)c3nccnc23)C[C@H](CN2CCc3cc(N4CCNCC4)ccc3C2)O1 [Example 34, (2R,6S)-4-(8-chloroquinoxalin-5-yl)-2-methyl-6-[(6-piperazin-1-yl-3,4-dihydro-1H-isoquinolin-2-yl)methyl]morpholine] | 0.125 |
| C[C@@H]1CN(c2ccc3c(c2)CN(C[C@H]2CN(c4ccc(C#N)c5nccnc45)C[C@@H](C)O2)C3)CCN1 [Example 65, 8-[(2R,6S)-2-methyl-6-[[5-[(3R)-3-methylpiperazin-1-yl]isoindolin-2-yl]methyl]morpholin-4-yl] quinoxaline-5-carbonitrile] | 0.059 |
| C[C@@H]1CN(c2ccc(C#N)c3ncccc23)C[C@H](CN2Cc3cnc(N4CCNCC4)cc3C2)O1 [Example 61, 5-[(2R,6S)-2-methyl-6-[(6-piperazin-1-yl-1,3-dihydropyrrolo[3,4-c]pyridin-2-yl)methyl]morpholin-4-yl]quinoline-8-carbonitrile] | 0.059 |
| C[C@@H]1CN(c2ccc(C#N)n3ncc(F)c23)C[C@H](CN2Cc3cc(N4CCNCC4)cnc3C2)O1 [Example 29, 3-fluoro-4-[(2R,6S)-2-methyl-6-[(3-piperazin-1-yl-5,7-dihydropyrrolo[3,4-b]pyridin-6-yl)methyl]morpholin-4-yl]pyrazolo[1,5-a]pyridine-7-carbonitrile] | 0.134 |
| C[C@@H]1CN(c2ccc(C#N)c3ncccc23)C[C@H](CN2Cc3ccc(N4CCNCC4CO)cc3C2)O1 (stereo partly drawn) [Example 73, 5-[(2S,6R)-2-[[5-[2-(hydroxymethyl)piperazin-1-yl]isoindolin-2-yl]methyl]-6-methyl-morpholin-4-yl]quinoline-8-carbonitrile] | 0.06 |
| C[C@@H]1CN(c2ccc(C#N)c3ncccc23)C[C@H](CN2CCc3nc(N4CCNCC4)ccc3C2)O1 [Example 79, 5-[(2R,6S)-2-methyl-6-[(2-piperazin-1-yl-7,8-dihydro-5H-1,6-naphthyridin-6-yl)methyl]morpholin-4-yl]quinoline-8-carbonitrile] | < 0.032 |
| C[C@@H]1CN(c2ccc(C#N)c3nccnc23)C[C@H](CN2Cc3ccc(N4CCNC5(CC5)C4)cc3C2)O1 [Example 38, 8-[(2S,6R)-2-[[5-(4,7-diazaspiro[2.5]octan-7-yl)isoindolin-2-yl]methyl]-6-methyl-morpholin-4-yl]quinoxaline-5-carbonitrile] | 0.227 |
| C[C@@H]1CN(c2ccc(C#N)n3nccc23)C[C@H](CN2Cc3cc(N4CCNCC4)cnc3C2)O1 [Example 18, 4-[(2R,6S)-2-methyl-6-[(3-piperazin-1-yl-5,7-dihydropyrrolo[3,4-b]pyridin-6-yl)methyl]morpholin-4-yl]pyrazolo[1,5-a]pyridine-7-carbonitrile] | 0.048 |
| C[C@@H]1CN(c2ccc(C#N)c3nccnc23)C[C@H](CN2Cc3cc(N4CCNCC4)cnc3C2)O1 [Example 30, 8-[(2R,6S)-2-methyl-6-[(3-piperazin-1-yl-5,7-dihydropyrrolo[3,4-b]pyridin-6-yl)methyl]morpholin-4-yl]quinoxaline-5-carbonitrile] | 0.136 |
| 3-fluoro-4-[(2R,6S)-2-methyl-6-[(5-piperazin-1-ylisoindolin-2-yl)methyl]morpholin-4-yl]pyrazolo[1,5-a]pyridine-7-carbonitrile [Example 7] | 0.091 |
| CC1c2ccc(N3CCNCC3)cc2CN1C[C@H]1CN(c2ccc(C#N)c3ncccc23)C[C@@H](C)O1 (stereo partly drawn) [Example 48, 5-[(2R,6S)-2-methyl-6-[(1-methyl-5-piperazin-1-yl-isoindolin-2-yl)methyl]morpholin-4-yl]quinoline-8-carbonitrile] | 0.105 |
| C[C@@H]1CN(c2ccc(C#N)c3ncccc23)C[C@H](CN2Cc3ccc(N4CC5(CNC5)C4)cc3C2)O1 [Example 47, 5-[(2S,6R)-2-[[5-(2,6-diazaspiro[3.3]heptan-2-yl)isoindolin-2-yl]methyl]-6-methyl-morpholin-4-yl]quinoline-8-carbonitrile] | 0.083 |
| C[C@@H]1CN(c2ccc(Cl)c3ncccc23)C[C@H](CN2Cc3ccc(N4CCNCC4)cc3C2)O1 [Example 31, (2R,6S)-4-(8-chloro-5-quinolyl)-2-methyl-6-[(5-piperazin-1-ylisoindolin-2-yl)methyl]morpholine] | 0.168 |
| C[C@@H]1CN(c2ccc3c(c2)CN(C[C@H]2CN(c4ccc(C#N)c5ncccc45)C[C@@H](C)O2)C3)C[C@@H](C)N1 (mixture of isomers) [Example 57, Trans-5-[(2R,6S)-2-methyl-6-[[5-[3,5-dimethylpiperazin-1-yl]isoindolin-2-yl]methyl]morpholin-4-yl]quinoline-8-carbonitrile] | 0.098 |
| C[C@@H]1CN(c2ccc(C#N)n3nccc23)C[C@H](CN2Cc3ccc(OCCN(C)C)cc3C2)O1 [Example 28, 4-[(2S,6R)-2-[[5-[2-(dimethylamino)ethoxy]isoindolin-2-yl]methyl]-6-methyl-morpholin-4-yl]pyrazolo[1,5-a]pyridine-7-carbonitrile] | 0.093 |
| C[C@@H]1CN(c2ccc(C#N)c3nccnc23)C[C@H](CN2Cc3ccc(N4CCN[C@@H](C)C4)cc3C2)O1 [Example 66, 8-[(2R,6S)-2-methyl-6-[[5-[(3S)-3-methylpiperazin-1-yl]isoindolin-2-yl]methyl]morpholin-4-yl]quinoxaline-5-carbonitrile] | 0.083 |
| COCCN1CCN(c2ccc3c(c2)CN(C[C@H]2CN(c4ccc(C#N)c5nccnc45)C[C@@H](C)O2)C3)CC1 [Example 37, 8-[(2S,6R)-2-[[5-[4-(2-methoxyethyl)piperazin-1-yl]isoindolin-2-yl]methyl]-6-methyl-morpholin-4-yl]quinoxaline-5-carbonitrile] | 0.26 |
| C[C@@H]1CN(c2ccc(C#N)n3nccc23)C[C@H](CN2CCc3cc(N4CCNCC4)ccc3C2)O1 [Example 10, 4-[(2R,6S)-2-methyl-6-[(6-piperazin-1-yl-3,4-dihydro-1H-isoquinolin-2-yl)methyl]morpholin-4-yl]pyrazolo[1,5-a]pyridine-7-carbonitrile] | 0.067 |
